Laboratory results published in article PMC8343220, “The selectivity of α‐adrenoceptor agonists for the human α1A, α1B, and α1D‐adrenoceptors” (Pharmacology Research & Perspectives, 2021).

Legend:
human α1B‐adrenoceptor [1] = target: T1, human α1B‐adrenoceptor (Homo sapiens, UniProt P35368); assay: ^3H‐prazosin whole‐cell radioligand binding, CHO‐α1B cells; details: for Kd: CHO‐α1B cells
T1 construct: expressed in transfected cells; host or cells: CHO-K1
T1 sequence (P35368 1-520): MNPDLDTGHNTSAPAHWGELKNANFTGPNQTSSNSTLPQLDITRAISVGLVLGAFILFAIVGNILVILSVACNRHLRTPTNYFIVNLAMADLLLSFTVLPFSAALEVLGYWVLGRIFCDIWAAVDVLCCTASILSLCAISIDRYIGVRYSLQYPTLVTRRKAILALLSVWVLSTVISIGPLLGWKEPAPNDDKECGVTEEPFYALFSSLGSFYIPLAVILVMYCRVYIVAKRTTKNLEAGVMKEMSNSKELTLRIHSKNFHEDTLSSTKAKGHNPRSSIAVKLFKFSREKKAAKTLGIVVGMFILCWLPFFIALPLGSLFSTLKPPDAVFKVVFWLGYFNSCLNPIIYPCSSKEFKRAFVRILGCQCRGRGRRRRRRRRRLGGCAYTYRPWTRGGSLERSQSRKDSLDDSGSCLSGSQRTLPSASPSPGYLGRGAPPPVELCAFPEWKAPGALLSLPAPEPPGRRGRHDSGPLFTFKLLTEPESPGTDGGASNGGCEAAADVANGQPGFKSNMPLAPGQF

[2] = target: T2, human α1D‐adrenoceptor (full length) (Homo sapiens, UniProt P25100); assay: Intracellular free calcium mobilization, CHO‐α1D cells; format: cell-based; details: CHO‐α1D cells; for Log efficacy ratio KD /EC50: intrinsic efficacy ratio, binding KD / calcium EC50; for Intracellular calcium release % ionomycin: maximal response as % of 10 µM ionomycin
T2 construct: human α1D‐adrenoceptor (full length) were used; expressed in transfected cells; host or cells: CHO-K1
T2 sequence (P25100 1-572): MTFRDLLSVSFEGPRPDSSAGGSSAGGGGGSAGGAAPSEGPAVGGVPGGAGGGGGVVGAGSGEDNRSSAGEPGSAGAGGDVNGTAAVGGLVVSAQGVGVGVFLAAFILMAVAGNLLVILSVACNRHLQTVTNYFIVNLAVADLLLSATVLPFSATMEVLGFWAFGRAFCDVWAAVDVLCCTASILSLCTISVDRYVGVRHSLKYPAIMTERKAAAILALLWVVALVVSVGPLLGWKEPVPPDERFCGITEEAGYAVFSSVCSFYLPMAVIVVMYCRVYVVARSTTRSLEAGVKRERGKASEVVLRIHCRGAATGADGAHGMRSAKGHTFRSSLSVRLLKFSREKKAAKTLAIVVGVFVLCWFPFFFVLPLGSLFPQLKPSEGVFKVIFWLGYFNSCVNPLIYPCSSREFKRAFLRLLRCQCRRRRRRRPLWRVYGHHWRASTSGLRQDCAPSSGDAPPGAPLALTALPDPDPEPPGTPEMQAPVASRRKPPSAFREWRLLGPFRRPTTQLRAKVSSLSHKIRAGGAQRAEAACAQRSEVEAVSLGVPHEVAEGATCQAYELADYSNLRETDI

human α1B‐adrenoceptor [3] = target: T1, human α1B‐adrenoceptor; assay: ^3H‐cAMP accumulation, CHO‐α1B cells; format: cell-based; details: CHO‐α1B cells; for cAMP accumulation % forskolin: % forskolin maximum response; for EC50: read-out: cAMP accumulation Log EC50 (converted)
[4] = target: T2, human α1D‐adrenoceptor (full length); assay: ^3H‐cAMP accumulation in the presence of 10 μM forskolin, CHO‐α1D cells; format: cell-based; details: CHO‐α1D cells; for cAMP (in presence of forskolin) Fold increase: fold increase of the forskolin response
human α1A‐adrenoceptor [5] = target: T3, human α1A‐adrenoceptor (Homo sapiens, UniProt P35348); assay: ERK1/2‐phosphorylation (Surefire Alphascreen), CHO‐α1A cells; format: cell-based; details: CHO‐α1A cells, ^a bi‐phasic: initial stimulatory part; for EC50: 2–4 min, ^b also active in parent CHO cells, read-out: ERK1/2‐phosphorylation Log EC50 (converted); for ERK1/2‐phosphorylation % PDBu: % of 10 µM PDBu
T3 construct: expressed in transfected cells; host or cells: CHO-K1
T3 sequence (P35348 1-466): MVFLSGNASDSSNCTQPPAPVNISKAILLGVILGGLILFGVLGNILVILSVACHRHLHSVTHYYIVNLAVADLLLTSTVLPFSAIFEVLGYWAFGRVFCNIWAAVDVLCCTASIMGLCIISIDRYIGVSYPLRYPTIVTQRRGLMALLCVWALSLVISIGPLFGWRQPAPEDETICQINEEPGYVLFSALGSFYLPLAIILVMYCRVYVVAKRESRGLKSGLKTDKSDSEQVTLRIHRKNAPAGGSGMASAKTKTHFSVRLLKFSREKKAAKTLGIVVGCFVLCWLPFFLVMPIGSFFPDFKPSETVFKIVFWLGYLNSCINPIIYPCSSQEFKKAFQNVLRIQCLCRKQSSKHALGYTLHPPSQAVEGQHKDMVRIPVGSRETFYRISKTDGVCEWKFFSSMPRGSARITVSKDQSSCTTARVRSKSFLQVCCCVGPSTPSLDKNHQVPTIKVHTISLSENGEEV

human α1B‐adrenoceptor [6] = target: T1, human α1B‐adrenoceptor; assay: Intracellular free calcium mobilization, CHO‐α1B cells; format: cell-based; details: for EC50: given as log EC50 (negative numbers), read-out: Intracellular calcium release Log EC50 (converted); for Log efficacy ratio KD /EC50: intrinsic efficacy ratio, KD from binding / EC50 calcium; for Intracellular calcium release % ionomycin: maximal response as % of 10 µM ionomycin response
human α1B‐adrenoceptor [7] = target: T1, human α1B‐adrenoceptor; assay: ERK1/2‐phosphorylation (Surefire Alphascreen), CHO‐α1B cells; format: cell-based; details: for EC50 / ERK1/2‐phosphorylation % PDBu: for bi‐phasic responses the initial stimulatory part; for EC50: read-out: ERK1/2‐phosphorylation Log EC50 (converted); for ERK1/2‐phosphorylation % PDBu: maximal response as % PDBu response
human α1A‐adrenoceptor [8] = target: T3, human α1A‐adrenoceptor; assay: Intracellular free calcium mobilization, CHO‐α1A cells; format: cell-based; details: CHO‐α1A cells; for Log efficacy ratio KD /EC50: binding KD and calcium EC50; for EC50: given as log EC50 (negative), read-out: Intracellular calcium release Log EC50 (converted); for Intracellular calcium release % ionomycin: maximal response as % of 10 µM ionomycin
[9] = target: T2, human α1D‐adrenoceptor (full length); assay: ERK1/2‐phosphorylation (Surefire Alphascreen), CHO‐α1D cells; format: cell-based; details: CHO‐α1D cells; for EC50: read-out: ERK1/2‐phosphorylation Log EC50 (converted); for ERK1/2‐phosphorylation % PDBu: maximal response as % of PDBu
human α1A‐adrenoceptor [10] = target: T3, human α1A‐adrenoceptor; assay: ^3H‐cAMP accumulation, CHO‐α1A cells; format: cell-based; details: CHO‐α1A cells; for EC50: 5 h, read-out: cAMP accumulation Log EC50 (converted); for cAMP accumulation % forskolin: % of 10 µM forskolin response
[11] = tested on: parental CHO cell line without any transfected receptors; assay: ERK1/2‐phosphorylation, parent CHO cells without transfected receptors; format: cell-based, Chinese hamster; details: for Emax at 100 µM: Cricetulus griseus, CHO, read-out: ERK1/2-phosphorylation % PDBu at 100μM
human α1B‐adrenoceptor [12] = target: T1, human α1B‐adrenoceptor; assay: ^3H‐cAMP accumulation in the presence of 10 μM forskolin, CHO‐α1B cells; format: cell-based; details: CHO‐α1B cells; for cAMP accumulation (in presence of forskolin) Fold increase: fold increase of the forskolin response; for EC50: in presence of forskolin, read-out: cAMP accumulation (in presence of forskolin) Log EC50 (converted)
[13] = in presence of forskolin, log values given negative
[14] = Log KD α1B, ^3H‐prazosin whole cell binding, given as log KD (negative), mean ± SEM
[15] = Log KD, ^3H‐prazosin binding, whole‐cell binding (from Table 1), given as log KD (negative numbers)

Compound	Log efficacy ratio KD /EC50 [2]	Intracellular calcium release % ionomycin [2] [%]	cAMP accumulation % forskolin (human α1B‐adrenoceptor [3])	EC50 (human α1B‐adrenoceptor [3]) [nM]	cAMP (in presence of forskolin) Fold increase [4]	EC50 (human α1A‐adrenoceptor [5]) [nM]	ERK1/2‐phosphorylation % PDBu (human α1A‐adrenoceptor [5]) [%]	EC50 (human α1B‐adrenoceptor [6]; CHO‐α1B cells) [nM]	Log efficacy ratio KD /EC50 (human α1B‐adrenoceptor [6]; CHO‐α1B cells)	Intracellular calcium release % ionomycin (human α1B‐adrenoceptor [6]; CHO‐α1B cells) [%]	EC50 (human α1B‐adrenoceptor [7]; CHO‐α1B cells) [nM]	ERK1/2‐phosphorylation % PDBu (human α1B‐adrenoceptor [7]; CHO‐α1B cells) [%]	Log efficacy ratio KD /EC50 (human α1A‐adrenoceptor [8])	EC50 (human α1A‐adrenoceptor [8]) [nM]	Intracellular calcium release % ionomycin (human α1A‐adrenoceptor [8]) [%]	ERK1/2‐phosphorylation % PDBu [9]	EC50 (human α1A‐adrenoceptor [10]) [nM]	cAMP accumulation % forskolin (human α1A‐adrenoceptor [10]) [%]	cAMP accumulation (in presence of forskolin) Fold increase (human α1B‐adrenoceptor [12]) [fold]	EC50 (human α1B‐adrenoceptor [12]) [nM]	also measured
c1ccc(C2CC2)c(OCC2=NCCN2)c1 [Cirazoline]	1.37	17.3 ± 3.8	11.4 ± 2.4%	120	No response	0.955	80.8 ± 3.6	8.91	2.95	53.3 ± 1.5	120	82.5 ± 8.6	3.01	0.661	58.2 ± 2.0	36.5 ± 3.2%	123	108.9 ± 6.5	2.09 ± 0.13	39.8	Kd (human α1B‐adrenoceptor [1]; given as log KD (negative), mean ± SEM): 7940 nM; Intracellular calcium release Log EC50 ([2]; log values given negative): −6.90 ± 0.09; cAMP (in presence of forskolin) Log EC50 [4, 13]: No response; EC50 ([9]; log values given negative): 3800 nM; Emax at 100 µM [11]: 33.4 ± 7.6%
CC(CCc1ccc(O)cc1)NCCc1ccc(O)c(O)c1 (stereo not shown) [Dobutamine]	2.26	10.6 ± 1.8	No response	–	1.16 ± 0.06	43.7	85.5 ± 4.3	–	–	–	–	–	2.04	4.17	31.3 ± 3.6	26.2 ± 7.5%	871	11.9 ± 1.6	1.24 ± 0.04	2000	Kd (human α1B‐adrenoceptor [1]; [14]): 3630 nM; Kd (human α1B‐adrenoceptor [1]; [15]): 3630 nM; Affinity selectivity ratio α1B vs α1D (human α1B‐adrenoceptor [1]; left sub‐column: higher affinity for α1B than α1D): 1.2 fold; EC50 ([2]; log values given negative, read-out: Intracellular calcium release Log EC50 (converted)): 24 nM; cAMP accumulation Log EC50 (human α1B‐adrenoceptor [3]): No response; EC50 [4, 13]: 309 nM; Agonist (calcium) response in CHO‐α1B cells (human α1B‐adrenoceptor [6]): did not stimulate any measurable; Intracellular calcium release % Ionomycin at 100 µM (human α1B‐adrenoceptor [6]; CHO‐α1B cells, response at 100 µM ligand (no EC50 given), % of ionomycin response): 3.0 ± 1.1%; ERK1/2‐phosphorylation response in CHO‐α1B cells (human α1B‐adrenoceptor [7]): did not stimulate any measurable; ERK1/2‐phosphorylation % PDBu at 100 µM (human α1B‐adrenoceptor [7]; CHO‐α1B cells, response at 100 µM ligand (no EC50 given)): 56.3 ± 11.3%; EC50 ([9]; log values given negative): 891 nM; ERK1/2-phosphorylation % PDBu at 10μM ([11]; CHO cells without transfected receptors, response at 10μM only, EC50 not obtainable, % of PDBu (10μM)): 16.4 ± 5.9%
Clc1ccc2nsnc2c1NC1=NCCN1 [Tizanidine]	–	–	10.7 ± 1.5%	708	–	37.2	82.1 ± 3.9	89.1	2.70	48.8 ± 1.8	288	57.7 ± 5.3	1.98	36.3	53.5 ± 1.6	No response	1660	65.6 ± 6.5	2.01 ± 0.11	182	Kd (human α1B‐adrenoceptor [1]; [14]): 44700 nM; Kd (human α1B‐adrenoceptor [1]; [15]): 44700 nM; Intracellular calcium release % Ionomycin at 100 µM ([2]; response at 100 µM ligand (no EC50 given)): 2.5 ± 0.8%; ERK1/2‐phosphorylation Log EC50 ([9]; log values given negative): No response; Emax at 100 µM [11]: 6.7 ± 3.3%
